From patent US9200319B2, “Nucleotides and nucleosides and methods for their use in DNA sequencing” (Lasergen, Inc., priority 2008, dated 2015)
“And” between values parts separate entries of the source, which are not always exact repeats. Identical values can stand only once.

What was measured:
[1] = biological target: T1, THERMINATOR™ DNA polymerase (Thermococcus sp., UniProt Q56366, A485L/D141A/E143A); assay: polymerase end point assay, mismatch discrimination (mismatched template bases); type: biochemical, Thermococcus species 9° N-7
T1 construct: purchased New England Biolabs
Experimental: (§1) Natural and modified nucleotides were tested for incorporation efficiency using the “polymerase end point assay” (Wu et al., 2007, which is incorporated herein by reference). This assay examines incorporation efficiency on matched and mismatched template bases. Incorporation efficiency is measured by determining the concentration at which the compound incorporates on half the primer-template complexes (IC50). Titrations of increasing compound concentration were performed to generate curves from which the IC50 can be determined.
(§2) The sequence of the template DNA is selected depending on which compound will be tested. For example, the first interrogation base after the primer in the template sequence is the complement base of the compound when measuring incorporation efficiency, and one of three mismatched bases when measuring mismatch discrimination properties.
The mismatch/match ratios represent the ability of the polymerase to distinguish between correctly incorporating against a matched template base and a mismatch one. Discrimination is considered sufficient when the mismatch/match ratio is greater than or equal to 100 (two orders of magnitude). […] Both natural dGTP and C^7-(2-nitrobenzyloxy)methyl-2′-dGTP (5p107) show mismatch/match ratios ranging from 10 to 360, and 10 to 250, respectively, two of which are below the 100-fold threshold. […] A similar trend is observed for the C^7-hydroxymethyl-dATP analogs. For the compounds shown in Table 1, substitution at the α-carbon of the 2-nitrobenzyl group increases mismatch discrimination in a stereo-specific manner.
as §2, with “The temperature cycle to complete primer annealing is 80° C. for 30 seconds, 57° C. for 30 seconds, then cooling to 4° C. The” for “The”
(§3) To the annealed reaction, a DNA polymerase (e.g., THERMINATOR™ DNA polymerase, 0.25 units per reaction, New England Biolabs), 1× Thermopol Buffer, and a known concentration of either natural or modified nucleotide are added to each 10 μL reaction and incubated at 75° C. for 10 minutes, cooled on ice, and quenched with 10 μL of stop solution (98% formamide: 10 mM Na2EDTA, pH=8.0, 25 mg/ml Blue Dextran). Stopped reactions are heated to 75° C. for 30 seconds to denature the DNA, and then placed on ice. The extension products are analyzed on a 10% Long Ranger (Lonza) polyacrylamide gel using an ABI model 377 DNA sequencer.

[2] = biological target: T1, THERMINATOR™ DNA polymerase; assay: biochemical; parameters: species or system Thermococcus species 9° N-7
Experimental: as §1, §2
as §3, with “sequencer. Additional details are provided in Example 1, below.” for “sequencer.”
Polymerase Assays. Natural and modified nucleotides were tested for incorporation efficiency using the “polymerase end point assay” (Wu et al., 2007, which is incorporated herein by reference). This assay examines incorporation efficiency on matched and mismatched template bases. Incorporation efficiency is measured by determining the concentration at which the compound incorporates on half the primer-template complexes (IC50). Titrations of increasing compound concentration were performed to generate curves from which the IC50 can be determined.
The assay is performed by first annealing 5 nM of BODIPY-FL labeled primer with 40 nM template DNA in 1× Thermopol Buffer (20 mM Tris-HCl, pH 8.8; 10 mM (NH4)2SO4; 10 mM KCl; 2 mM MgSO4; 0.1% Triton X-100, New England BioLabs).
as §2, with “The temperature cycle to complete primer annealing is 80° C. for 30 seconds, 57° C. for 30 seconds, then cooling to 4° C. The” for “The”
as §3

[3] = UV-cleavage of incorporated nucleotide analogs with 365 nm light; settings: 365 nm UV light, 50 mM NaN3; time at which half the incorporated analog is cleaved
Experimental: Cleavage of the terminating substituted 2-nitrobenzyl group when analogs are incorporated into the primer strand with 365 nm UV light allows for the next cycle of incorporation to resume. Without being bound by theory, at least two factors were found typically influence UV-cleavage rates of incorporated nucleotide analogs: a) stereo-chemistry of the α-carbon substitution of the 2-nitrobenzyl group, and b) substitution on the benzyl ring. Incorporation on a matched template is performed as described above using 1 μM concentration to extend the primer strand. Ten identical tubes are used for each incorporation experiment, after which NaN3 is added to a final concentration of 50 mM. Extended primer reactions are exposed to 365 nm light for various time points using the UV deprotector device described by Wu et al. (2007, which is incorporated herein by reference) and analyzed using an AB model 377 DNA sequencer. The quantitative data are plotted linearly as product formation versus exposure time, and the time point at which half the nucleotide analog is cleaved is calculated, as a DT50 value. […] For example, based on these examples, the ds2 analogs show faster cleavage rates (e.g., lower DT50 values) compared with ds1 analogs. Furthermore, substitution of a methoxy group at the 4 position on the benzyl ring further increases the rate of UV-cleavage, albeit for ds2 analogs only (e.g., the DT50 value for 5p098-ds2 is […] versus that of 1.9 sec for 6p087-ds2). Based on the examples summarized in Table 3, substitution at the α-carbon of the 2-nitrobenzyl ring increases UV-cleavage in a stereospecific manner.

[4] = biological target: T1, THERMINATOR™ DNA polymerase; assay: termination assay, weighted sum analysis on homopolymer repeat template; type: biochemical, Thermococcus species 9° N-7; settings: 1.0 = complete termination after a single incorporation
Experimental: A weighted sum of 1.0 represents complete termination after a single incorporation, while a value greater than 1.0 indicates incorporation beyond the +1 position (e.g. nucleotide read through). […] The assay is performed as described above for the polymerase end-point assay, except that the template used is a homopolymer repeat, thereby allowing for multiple incorporations of a given nucleotide compound.

[5] = IC50 for incorporation, concentration at which the compound incorporates on half the primer-template complexes, complement template base

T1 sequence (Q56366 whole entry D141A/E143A/A485L): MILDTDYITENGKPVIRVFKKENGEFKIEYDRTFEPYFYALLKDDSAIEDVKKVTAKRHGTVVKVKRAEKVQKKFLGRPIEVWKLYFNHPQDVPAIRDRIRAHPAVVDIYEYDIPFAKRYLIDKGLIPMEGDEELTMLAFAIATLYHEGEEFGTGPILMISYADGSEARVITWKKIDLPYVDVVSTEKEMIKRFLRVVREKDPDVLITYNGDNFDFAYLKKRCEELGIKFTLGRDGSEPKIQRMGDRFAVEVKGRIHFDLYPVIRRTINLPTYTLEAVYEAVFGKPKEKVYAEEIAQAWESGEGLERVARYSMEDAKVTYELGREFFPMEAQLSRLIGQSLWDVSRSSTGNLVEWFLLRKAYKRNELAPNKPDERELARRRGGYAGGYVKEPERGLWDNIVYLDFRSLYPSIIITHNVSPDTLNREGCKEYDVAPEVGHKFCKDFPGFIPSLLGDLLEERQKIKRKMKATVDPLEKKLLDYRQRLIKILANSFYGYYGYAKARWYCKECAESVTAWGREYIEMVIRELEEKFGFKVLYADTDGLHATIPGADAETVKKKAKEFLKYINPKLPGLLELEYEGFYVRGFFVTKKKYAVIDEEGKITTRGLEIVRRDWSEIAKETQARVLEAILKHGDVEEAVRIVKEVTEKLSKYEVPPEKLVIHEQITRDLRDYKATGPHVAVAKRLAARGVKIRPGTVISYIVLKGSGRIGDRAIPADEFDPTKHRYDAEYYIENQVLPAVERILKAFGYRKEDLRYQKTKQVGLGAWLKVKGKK

Row | Structure (SMILES) | Mismatch/match ratio (10^2) ([1]; template base "A") | Mismatch/match ratio (10^2) ([1]; template base "G") | Mismatch/match ratio (10^2) ([1]; template base "T") | IC50 [2, 5] [nM] | DT50 [3] | other results
1 | CC(C)C(OCc1cn([C@H]2C[C@H](O)[C@@H](COP(=O)(O)OP(=O)(O)OP(=O)(O)O)O2)c2nc(N)[nH]c(=O)c12)c1ccccc1[N+](=O)[O-] (single isomer, unassigned) [5p143-ds1, 7-[1-(2-nitrophenyl)-2-methyl-propyloxy]methyl-7-deaza-2′-deoxyguanosine-5′-triphosphate] | >830 10^2 | >21 10^2 | 5 10^2 | 1.2 ± 0.2 |  | 
2 | Nc1nc2c(c(COCc3ccccc3[N+](=O)[O-])cn2[C@H]2C[C@H](O)[C@@H](COP(=O)(O)OP(=O)(O)OP(=O)(O)O)O2)c(=O)[nH]1 [5p107, 7-(2-nitrobenzyloxy)methyl-7-deaza-2′-deoxyguanosine-5′-triphosphate] | 2.5 10^2 | 0.4 10^2 | 0.1 10^2 | 1.5 ± 0.3 |  | 
3 | COc1ccc(C(OCc2cn([C@H]3C[C@H](O)[C@@H](COP(=O)(O)OP(=O)(O)OP(=O)(O)O)O3)c3ncnc(N)c23)C(C)C)c([N+](=O)[O-])c1 (single isomer, unassigned) [6p087-ds1, 7-[1-(4-methoxy-2-nitrophenyl)-2-methyl-propyloxy]methyl-7-deaza-2′-deoxyadenosine-5′-triphosphate] |  |  |  | 15 ± 1 | 8.8 ± 0.6 s | 
4 | CC(C)C(OCc1cn([C@H]2C[C@H](O)[C@@H](COP(=O)(O)OP(=O)(O)OP(=O)(O)O)O2)c2ncnc(N)c12)c1ccccc1[N+](=O)[O-] (single isomer, unassigned) [5p098-ds2, 7-[1-(2-nitrophenyl)-2-methyl-propyloxy]methyl-7-deaza-2′-deoxyadenosine-5′-triphosphate] |  |  |  | 5.7 ± 1.1 | 3.3 s and 3.3 ± 0.2 s | 
5 | COc1ccc(C(OCc2cn([C@H]3C[C@H](O)[C@@H](COP(=O)(O)OP(=O)(O)OP(=O)(O)O)O3)c3ncnc(N)c23)C(C)C)c([N+](=O)[O-])c1 (single isomer, unassigned) [6p087-ds2, 7-[1-(4-methoxy-2-nitrophenyl)-2-methyl-propyloxy]methyl-7-deaza-2′-deoxyadenosine-5′-triphosphate] |  |  |  | 18 ± 3 | 1.9 s and 1.9 ± 0.1 s | 
6 | Nc1nc2c(ncn2[C@H]2C[C@H](O)[C@@H](COP(=O)(O)OP(=O)(O)OP(=O)(O)O)O2)c(=O)[nH]1 [dGTP, reference compound] | 3.6 10^2 | 0.2 10^2 | 0.1 10^2 |  |  | 
7 | CC(C)C(OCc1cn([C@H]2C[C@H](O)[C@@H](COP(=O)(O)OP(=O)(O)OP(=O)(O)O)O2)c2ncnc(N)c12)c1c([N+](=O)[O-])cccc1[N+](=O)[O-] (single isomer, unassigned) [6p057-ds1, 7-[1-(2,6-dinitrophenyl)-2-methyl-propyloxy]methyl-7-deaza-2′-deoxyadenosine-5′-triphosphate] |  |  |  | 5.2 ± 0.2 | 7.3 ± 1.2 s | 
8 | CC(C)C(OCc1cn([C@H]2C[C@H](O)[C@@H](COP(=O)(O)OP(=O)(O)OP(=O)(O)O)O2)c2ncnc(N)c12)c1c([N+](=O)[O-])cccc1[N+](=O)[O-] (single isomer, unassigned) [6p057-ds2, 7-[1-(2,6-dinitrophenyl)-2-methyl-propyloxy]methyl-7-deaza-2′-deoxyadenosine-5′-triphosphate] |  |  |  | 5.8 ± 1.1 | 4.8 ± 0.5 s | 
9 | CC(C)C(OCc1cn([C@H]2C[C@H](O)[C@@H](COP(=O)(O)OP(=O)(O)OP(=O)(O)O)O2)c2nc(N)[nH]c(=O)c12)c1ccccc1[N+](=O)[O-] (single isomer, unassigned) [5p143-ds2, 7-[1-(2-nitrophenyl)-2-methyl-propyloxy]methyl-7-deaza-2′-deoxyguanosine-5′-triphosphate] | >770 10^2 | >7.7 10^2 | 2.5 10^2 | 1.3 ± 0.3 |  | 
10 | CC(C)C(OCc1cn([C@H]2C[C@H](O)[C@@H](COP(=O)(O)OP(=O)(O)OP(=O)(O)O)O2)c2ncnc(N)c12)c1ccccc1[N+](=O)[O-] (single isomer, unassigned) [5p098-ds1, 7-[1-(2-nitrophenyl)-2-methyl-propyloxy]methyl-7-deaza-2′-deoxyadenosine-5′-triphosphate] |  |  |  | 6.7 ± 0.8 | 7.5 ± 0.8 s | 
11 | Cc1cccc(C)c1COCc1cn([C@H]2C[C@H](O)[C@@H](COP(=O)(O)OP(=O)(O)OP(=O)(O)O)O2)c(=O)[nH]c1=O [6p015, 5-(2,6-dimethylbenzyloxy)methyl-2′-deoxyuridine-5′-triphosphate] |  |  |  | 1.4 |  | Average Weighted Sum ± SD ([4]; 1x IC50): 0.56 ± 0.1; Average Weighted Sum ± SD ([4]; 5x IC50): 1.5 ± 0.1; Average Weighted Sum ± SD ([4]; 25x IC50): 2.2 ± 0.1; IC50 ([2]; Adj IC50 Conc (nM), adjusted IC50 used to set the concentrations of the termination assay): 1.4 nM
